Results published in PubChem BioAssay (NCI).
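Abbreviation: GI50, concentration required for 50% inhibition of growth. TGI: concentration producing complete growth inhibition.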

Columns and labels:
Assay in all cases: inhibition of tumour cell growth, NCI panel, 384-well format
[1] = system: BT-549 breast
[2] = system: RXF 393 renal
[3] = system: MCF7 breast
[4] = system: NCI/ADR-RES ovarian
[5] = system: HCT-15 colon
[6] = system: NCI-H226 lung
[7] = system: NCI-H522 lung
[8] = system: PC-3 prostate
[9] = system: SF-295 CNS
[10] = system: ACHN renal
[11] = system: M14 melanoma
[12] = system: MOLT-4 leukemia
[13] = system: K-562 leukemia
[14] = system: HOP-92 NSCLC
[15] = system: HCC-2998 colon
[16] = system: NCI-H460 NSCLC
[17] = system: COLO 205 colon
[18] = system: KM12 colon
[19] = system: UACC-62 melanoma
[20] = system: SF-539 CNS
[21] = system: A549 NSCLC
[22] = system: UACC-257 melanoma
[23] = system: MALME-3M melanoma
[24] = system: DU-145 prostate
[25] = system: NCI-H23 lung
[26] = system: LOX IMVI melanoma
[27] = system: HS 578T breast
[28] = system: RPMI-8226 leukemia
[29] = system: SK-MEL-2 melanoma
[30] = system: TK-10 renal
[31] = system: OVCAR-3 ovarian
[32] = system: OVCAR-8 ovarian
[33] = system: HOP-62 NSCLC
[34] = system: SNB-19 CNS
[35] = system: OVCAR-4 ovarian
[36] = system: SK-MEL-5 melanoma
[37] = system: SNB-75 CNS
[38] = system: SF-268 CNS
[39] = system: CAKI-1 renal
[40] = system: EKVX NSCLC
[41] = system: CCRF-CEM leukemia
[42] = system: MDA-MB-468 breast
[43] = system: A498 renal
[44] = system: 786-0 renal
[45] = system: U251 glioblastoma
[46] = system: HT29 colon
[47] = system: HL-60(TB) leukemia
[48] = system: IGROV1 ovarian
[49] = system: SK-MEL-28 melanoma
[50] = system: NCI-H322M lung
[51] = system: SW-620 colon
[52] = system: SK-OV-3 ovarian
[53] = system: HCT-116 colon
[54] = system: SN12C renal
[55] = system: MDA-MB-435 melanoma

CCOC(=O)CCC(NC(=O)C(Cc1ccc(N(CCCl)CCCl)cc1)NC=O)C(=O)OCC (stereo not given)
GI50 [1]: 12.1 µM | TGI [1]: 27.5 µM | GI50 [2]: 1760 nM | TGI [2]: 3.19 µM | GI50 [3]: 4.06 µM | TGI [3]: 25.9 µM | GI50 [4]: 8.38 µM | TGI [4]: 21.2 µM | GI50 [5]: 4.54 µM | TGI [5]: 16.8 µM | GI50 [6]: 1710 nM | TGI [6]: 10.9 µM | GI50 [7]: 729 nM | TGI [7]: 2110 nM | GI50 [8]: 5.25 µM | TGI [8]: 19.1 µM | GI50 [9]: 2120 nM | TGI [9]: 4.49 µM | GI50 [10]: 446 nM | TGI [10]: 1880 nM | GI50 [11]: 449 nM | TGI [11]: 1400 nM | GI50 [12]: 32.2 nM | TGI [12]: 113 nM | GI50 [13]: 13.1 µM | TGI [13]: 27.8 µM | GI50 [14]: 1020 nM | TGI [14]: 3.49 µM | GI50 [15]: 712 nM | TGI [15]: 13.9 µM | GI50 [16]: 566 nM | TGI [16]: 2910 nM | GI50 [17]: 602 nM | TGI [17]: 2380 nM | GI50 [18]: 15 µM | TGI [18]: 36.3 µM | GI50 [19]: 758 nM | TGI [19]: 2270 nM | GI50 [20]: 837 nM | TGI [20]: 2160 nM | GI50 [21]: 5.77 µM | TGI [21]: 27.5 µM | GI50 [22]: 1970 nM | TGI [22]: 4.65 µM | GI50 [23]: 1030 nM | TGI [23]: 2220 nM | GI50 [24]: 2420 nM | TGI [24]: 5.42 µM | GI50 [25]: 1120 nM | TGI [25]: 2990 nM | GI50 [26]: 2690 nM | TGI [26]: 13.2 µM | GI50 [27]: 2580 nM | TGI [27]: 14.3 µM | GI50 [28]: 355 nM | TGI [28]: 899 nM | GI50 [29]: 640 nM | TGI [29]: 1850 nM | GI50 [30]: 11.4 µM | TGI [30]: 29.2 µM | GI50 [31]: 1140 nM | TGI [31]: 2710 nM | GI50 [32]: 3.24 µM | TGI [32]: 17 µM | GI50 [33]: 1720 nM | TGI [33]: 4.13 µM | GI50 [34]: 3.81 µM | TGI [34]: 26.1 µM | GI50 [35]: 2600 nM | TGI [35]: 5.83 µM | GI50 [36]: 1220 nM | TGI [36]: 2590 nM | GI50 [37]: 2350 nM | TGI [37]: 5.59 µM | GI50 [38]: 737 nM | TGI [38]: 2280 nM | GI50 [39]: 463 nM | TGI [39]: 2140 nM | GI50 [40]: 18.9 µM | TGI [40]: 41.6 µM | GI50 [41]: 131 nM | TGI [41]: 281 nM | GI50 [42]: 339 nM | TGI [42]: 763 nM | GI50 [43]: 5.47 µM | TGI [43]: 26.6 µM | GI50 [44]: 1340 nM | TGI [44]: 2910 nM | GI50 [45]: 1820 nM | TGI [45]: 6.04 µM | GI50 [46]: 3.71 µM | TGI [46]: 16.6 µM | GI50 [47]: 33.5 nM | TGI [47]: 138 nM | GI50 [48]: 1370 nM | TGI [48]: 5.37 µM | GI50 [49]: 1480 nM | TGI [49]: 3.34 µM | GI50 [50]: 13.8 µM | TGI [50]: 30.1 µM | GI50 [51]: 2860 nM | TGI [51]: 20.6 µM | GI50 [52]: 3.27 µM | TGI [52]: 12.4 µM | GI50 [53]: 4.13 µM | TGI [53]: 24.3 µM | GI50 [54]: 604 nM | TGI [54]: 2610 nM | GI50 [55]: 3.19 µM | TGI [55]: 8.84 µM
